Structures can show the parent of a compound that is named as a salt. Values belong to the compound of their own block, whether it stands above or below them.
Legend:
Format in all cases: physicochemical
[1] = Solubility of lurasidone or a free form thereof in additives (Table 1), visual check; settings: for solubility at 30 min: thermodynamic from solid
Method: Solid-type additives were studied in 10% aqueous solutions thereof and liquid-type ones were studied in 100% solutions thereof. Specifically, to 10% aqueous solution of solid-type additive or to 100% solution of liquid-type one was added lurasidone or a free form thereof so that a concentration thereof was 10 mg/mL, and the mixture was promoted to be dissolved by an operation such as stirring, heating or sonication. It was confirmed by visual check 30 minutes after the operation whether the mixture was perfectly dissolved. In case that the mixture was perfectly dissolved in a concentration of 10 mg/mL, another amount of lurasidone or a free form thereof was added to be evaluated.

[2] = Storage stability of 30 mg/mL solutions, residual ratio by reverse phase HPLC (Table 2); settings: aqueous solutions using benzyl alcohol, propylene glycol, N,N-dimethylacetamide and lactic acid; one-month storage at 60° C. and 40° C.
Method: Solutions comprising lurasidone and a hydrochloride thereof in a concentration of 30 mg/mL were prepared in formulations in Table 2 to be stored under warming conditions (60° C. and 40° C.). After one-month storage, a residual ratio of principal agent was measured by using reverse phase HPLC. […] In other words, the present invention can provide a solution-type preparation with high stability wherein lurasidone and a free form thereof are solubilized at high concentrations.
Column: YMC-Pack AM-312 (5 μm, 6.0 mmφ×150 mm, manufactured by YMC Co., Ltd.)
Detector: ultraviolet absorptiometer (measured wavelength: 230 nm)
Column temperature: constant temperature around 25° C.
Solution A: 0.025% aqueous trifluoroacetic acid solution/acetonitrile mixture (4:1)
Solution B: 0.025% trifluoroacetic acid in acetonitrile solution

[3] = Solubility in water

- Solubility ([1]; additive No. 21: Squalane): <10000 µg/mL
- Solubility ([1]; additive No. 22: Medium-chain triglyceride): <10000 µg/mL
- Solubility ([1]; additive No. 23: Benzyl benzoate): <10000 µg/mL
- Solubility ([1]; additive No. 24: Anhydrous ethanol): <10000 µg/mL
- Solubility ([1]; additive No. 25: Sorbitan sesquioleate): <10000 µg/mL
- Solubility ([1]; additive No. 26: 1,3-Butanediol): <10000 µg/mL
- Solubility ([1]; additive No. 27: Dipropylene glycol): <10000 µg/mL
- Solubility ([1]; additive No. 28: Triethyleneglycol): <10000 µg/mL
- Solubility ([1]; additive No. 29: Isopropyl alcohol): <10000 µg/mL
- Solubility ([1]; additive No. 32: Isopropyl myristate): <10000 µg/mL
- Solubility ([1]; additive No. 34: Monoethanolamine): <10000 µg/mL
- Solubility ([1]; additive No. 35: Diethanolamine): <10000 µg/mL
- Solubility ([1]; additive No. 36: Triethanolamine): <10000 µg/mL
- Solubility ([1]; additive No. 37: Liquid paraffin): <10000 µg/mL
- Solubility ([1]; additive No. 38: Toluene): >50000 µg/mL
- Solubility ([1]; additive No. 41: N-Methyl-2-pyrrolidone): >50000 µg/mL
- Solubility ([1]; additive No. 42: Glycol salicylate): <10000 µg/mL
- Solubility ([1]; additive No. 44: Triacetin): <10000 µg/mL
- Solubility ([1]; additive No. 46: Sesame oil): <10000 µg/mL
- Solubility ([1]; additive No. 47: Castor oil): <10000 µg/mL
- Solubility ([1]; additive No. 49: Arachis oil): <10000 µg/mL
- Solubility ([1]; additive No. 50: Camellia oil): <10000 µg/mL
- Solubility ([1]; additive No. 51: Soybean oil): <10000 µg/mL
- Solubility ([1]; additive No. 52: Olive oil): <10000 µg/mL
Compound: O=C1[C@@H]2[C@H]3CC[C@H](C3)[C@@H]2C(=O)N1C[C@@H]1CCCC[C@H]1CN1CCN(c2nsc3ccccc23)CC1 [A free form of lurasidone, N-[4-[4-(1,2-benzisothiazol-3-yl)-1-piperazinyl]-(2R,3R)-2,3-tetramethylene-butyl]-(1′R,2′S,3′R,4′S)-2,3-bicyclo[2,2,1]heptane-dicarboxyimide]

- stability in aqueous solutions (in words) [2]: stable
- solubility at 30 min ([1]; aqueous buffer, additive No. 8: Sodium hydrogen carbonate): < 10000 µg/mL
- solubility at 30 min ([1]; aqueous with cosolvent or surfactant or cyclodextrin, additive No. 1: Citric acid): < 10000 µg/mL
- solubility at 30 min ([1]; aqueous with cosolvent or surfactant or cyclodextrin, additive No. 2: Sodium citrate): < 10000 µg/mL
- solubility at 30 min ([1]; aqueous with cosolvent or surfactant or cyclodextrin, additive No. 3: L-Aspartic acid): < 10000 µg/mL
- solubility at 30 min ([1]; aqueous with cosolvent or surfactant or cyclodextrin, additive No. 4: L-Arginine): < 10000 µg/mL
- solubility at 30 min ([1]; aqueous with cosolvent or surfactant or cyclodextrin, additive No. 5: Soy lecithin): < 10000 µg/mL
- solubility at 30 min ([1]; aqueous with cosolvent or surfactant or cyclodextrin, additive No. 6: Polysorbate 80): < 10000 µg/mL
- solubility at 30 min ([1]; aqueous with cosolvent or surfactant or cyclodextrin, additive No. 7: D-Mannitol): < 10000 µg/mL
- solubility at 30 min ([1]; aqueous with cosolvent or surfactant or cyclodextrin, additive No. 9: β-Cyclodextrin): < 10000 µg/mL
- solubility at 30 min ([1]; aqueous with cosolvent or surfactant or cyclodextrin, additive No. 10: Maleic acid): < 10000 µg/mL
- solubility at 30 min ([1]; aqueous with cosolvent or surfactant or cyclodextrin, additive No. 12: Calcium bromide): < 10000 µg/mL
- solubility at 30 min ([1]; aqueous with cosolvent or surfactant or cyclodextrin, additive No. 13: Ethylene diamine hydrochloride): < 10000 µg/mL
- solubility at 30 min ([1]; aqueous with cosolvent or surfactant or cyclodextrin, additive No. 14: Tris): < 10000 µg/mL
- solubility at 30 min ([1]; aqueous with cosolvent or surfactant or cyclodextrin, additive No. 16: Nicotinic amide): < 10000 µg/mL
- solubility at 30 min ([1]; aqueous with cosolvent or surfactant or cyclodextrin, additive No. 17: Capric acid): < 10000 µg/mL
- solubility at 30 min ([1]; oil or lipid, additive No. 11: Ethyl oleate): < 10000 µg/mL
- solubility at 30 min ([1]; oil or lipid, additive No. 21: Squalane): < 10000 µg/mL
- solubility at 30 min ([1]; oil or lipid, additive No. 22: Medium-chain triglyceride): < 10000 µg/mL
- solubility at 30 min ([1]; oil or lipid, additive No. 46: Sesame oil): 1000 to 10000 µg/mL
- solubility at 30 min ([1]; oil or lipid, additive No. 47: Castor oil): 1000 to 10000 µg/mL
- solubility at 30 min ([1]; oil or lipid, additive No. 49: Arachis oil): 1000 to 10000 µg/mL
- solubility at 30 min ([1]; oil or lipid, additive No. 50: Camellia oil): 1000 to 10000 µg/mL
- solubility at 30 min ([1]; oil or lipid, additive No. 51: Soybean oil): 1000 to 10000 µg/mL
- solubility at 30 min ([1]; oil or lipid, additive No. 52: Olive oil): < 1000 µg/mL
- solubility at 30 min ([1]; organic solvent or mixture, additive No. 15: Polyethylene glycol 400): < 10000 µg/mL
- solubility at 30 min ([1]; organic solvent or mixture, additive No. 18: Concentrated glycerin): < 10000 µg/mL
- solubility at 30 min ([1]; organic solvent or mixture, additive No. 19: Propylene glycol): 30000 to 100000 µg/mL
- solubility at 30 min ([1]; organic solvent or mixture, additive No. 20: Lactic acid): > 100000 µg/mL
- solubility at 30 min ([1]; organic solvent or mixture, additive No. 30: Benzyl alcohol): > 200000 µg/mL
- solubility in water [3]: less than several
Compound: O=C1[C@@H]2[C@H]3CC[C@H](C3)[C@@H]2C(=O)N1C[C@@H]1CCCC[C@H]1CN1CCN(c2nsc3ccccc23)CC1 [Lurasidone, N-[4-[4-(1,2-benzisothiazol-3-yl)-1-piperazinyl]-(2R,3R)-2,3-tetramethylene-butyl]-(1′R,2′S,3′R,4′S)-2,3-bicyclo[2,2,1]heptanedicarboxyimide hydrochloride]

Source: patent US8283352B2, “Solubilization preparation” (Dainippon Sumitomo Pharma Co., Ltd., priority 2005, dated 2012)
